From a melting point compilation (Tetko et al.; mined from patent text by program, amines drawn as free bases though some values may be those of a salt)

SMILES | melting point
CCc1ccc(N2CCCN(c3cc[nH]c(=S)c3C#N)CC2)cc1 | 226 to 229 °C
OC(c1ccccc1)(c1ccccc1)C(c1ccc(OCc2ccccc2)cc1)n1ccnc1 (stereo unspecified) | 204 °C
NC(CO)(CO)CCc1ccc(C(=O)CCCCCCc2ccccc2)cc1 | 121 to 122 °C
Cc1nc2cc(Cl)ccc2c(=O)n1C | 162 to 165 °C
COC(=O)[C@@H]1C[C@H](OC(=O)c2ccccc2)C(=O)[C@H]2[C@@]1(C)CC[C@H]1C(=O)O[C@H](c3ccoc3)C[C@]21C | 165 to 170 °C
CC(C)(C)c1cc(N2CCN(C(=O)c3ccc(N)cc3)C2=O)cc(C(C)(C)C)c1O | > 260 °C
CO/C=C(/C(=O)OC)c1ccccc1C=O | 67 to 69 °C
Cc1cccc(NC(=O)NCC(=O)N(CC(=O)O)c2ccccc2)c1 | 188 °C
O=[N+]([O-])c1cc2c(cc1Sc1ccccn1)CCC2 | 74 °C
O=C(O)c1ccc2oc(-c3ccc(O)cc3)cc2c1 | > 300 °C
CCCCCCC(CO)c1nc([N+](=O)[O-])c[nH]1 (stereo unspecified) | 83 to 84 °C
CCCC(=O)c1cnc2c(OC)cccc2c1Nc1ccccc1C | 215 to 217 °C
CN1CCN(Cc2ccc3nc(-c4ccc(Cl)c(C#Cc5cnc6cccnn56)c4)[nH]c3c2)CC1 | 156 to 157 °C
COc1cccc(C(O)c2cccc(C(F)(F)F)c2)c1 (stereo unspecified) | 51 to 52 °C
Nc1nc(OCC(F)(F)F)cc(C(F)(F)F)n1 | 108 to 110 °C
O=C(NCc1ccccc1)c1ccnc(NC(=O)c2cccc3ccccc23)c1 | 65 to 67 °C
CC(=O)Nc1nc2c(s1)-c1c(cnn1-c1ccc(Cl)cc1)C2 | 296 to 305 °C
CN(C)CCN(CCN(C)C)c1cccc(-c2nc3cc(Cl)c(Cl)cc3[nH]2)c1 | 129 to 132 °C
CC(C)c1ccc2c(c1)C(=O)CC21CNC(=O)C1 (stereo unspecified) | 165 to 167 °C
CSc1ccc2ncc(N)c(-c3ccccc3)c2c1 | 135 to 137 °C
Cc1nn(-c2cc(Nc3ccc(N)cc3)c(Cl)cc2Cl)c(=O)n1C(F)F | 196 to 197 °C
CC(C)(C)CN1C(=O)CC(=O)N(c2ccccc2Cl)c2cc(Cl)ccc21 | 245 to 246 °C
O=C(c1csc2ccccc12)C1CCN(CCc2ccccc2)CC1 | 110 to 112 °C
CCCCN1CCN(Cc2ccc(COc3cccc4c3CN(C3CCC(=O)NC3=O)C4=O)cc2)CC1=O (stereo unspecified) | 138 to 140 °C

SMILES | melting point
Nn1cccc1C(=O)C(F)(F)F | 33 to 35 °C
COc1ccc(C(=O)NCCCSc2ccncc2)cc1 | 121 to 122 °C
CC1(C)CCC(C)(C)c2cc3c(cc21)OCC3(C)c1cc(C=C(Br)Br)cs1 (stereo unspecified) | 124 °C
O=S(=O)(/C=C/c1ccc(Cl)cc1)CS(=O)(=O)/C=C/c1ccc(Cl)cc1 | 178 to 180 °C
CC1(C)CCC(C)(C)c2c1ccc(C=Nc1ccc(C(=O)O)c(O)c1)c2N | 209 to 210 °C
O=C1CCc2c(-c3ccncc3)sc(-c3ccncc3)c21 | 168 to 170 °C
CS(=O)(=O)c1cccc(NC(=O)c2cnn3c(C(F)F)cc(-c4ccc(C(F)(F)F)c(OCC(F)(F)F)c4)nc23)c1 | 207 °C
CCCCN(CCCC)C(=O)On1c(-c2ccccc2)nc2c3ccc4ccccc4c3ccc21 | 120 °C
O=C(NCCN1CCOCC1)N1c2ccccc2-c2noc3c2C1CCC3 (stereo unspecified) | 176 to 178 °C
CCOCc1nc2c(N)nc3cccnc3c2n1CC1(O)CCOCC1 | 166 to 167 °C
CCOC(=O)c1cc(=O)c(O)c(-c2ccc(OC)cc2)o1 | 163 to 164 °C
CN1CCC(Cc2cc3cccnc3[nH]2)C1 (stereo unspecified) | 96 to 97 °C
CC(C)c1cc(C(=O)Nc2ccc(C(=O)O)cn2)oc1C(C)C | 278 to 279 °C
CC1(O)CC2c3ccccc3CCN2C2CCCCC21 (stereo unspecified) | 85 to 88 °C
CC(O)(C(=O)O)c1cccc(OCc2ccc3ccccc3c2)c1 (single isomer, unassigned; (-)) | 104 to 106 °C
Cc1cc(NC(=O)C2=C(O)c3ccsc3S(=O)(=O)C2)no1 | 209 to 210 °C
Cc1ccc2c(c1)C=Cc1oc(C)nc1C2c1cn(C)c(=O)[nH]c1=S (stereo unspecified) | 146 to 150 °C
CS(=O)(=O)NCCCCCCCCCCCn1c2c(c3ccccc3c1=O)C(=O)c1ccccc1-2 | 136 to 137 °C
COc1ccc(C2=NNC(=O)CS2)c(OC)c1 | 162 to 164 °C
COc1ccc(CN(C)C(=O)CCCOc2ccc3c(c2)CN2CC(=O)NC2=N3)cc1 | 256 to 258 °C
O=C1OCCN1c1ccc([N+](=O)[O-])c(C(F)(F)F)c1 | 112 to 113 °C
CCNC(=O)c1c(NC(=O)c2cc(C(F)(F)F)nn2-c2ncccc2Cl)c(C)cc2nc(C)ccc12 | > 230 °C
O=c1c2c(O)c(O)ccc2c2cc(O)c(O)cc2n1Cc1ccc(Cl)c(Cl)c1 | 246 °C
Cc1cc(OC(F)F)ccc1NC(=O)c1cccc([N+](=O)[O-])c1C(=O)NC(C)C | 148 to 149 °C

SMILES | melting point
O=C(O)c1cnn2c1NCC=C2c1cccc(C(F)(F)F)c1 | 175 to 177 °C
CCOC(=O)c1cc(SC)c(I)cc1N | 59 to 60 °C
Cc1c(Cc2ccccc2)c(=O)n(Cc2ccccc2)c2cc(OCC(N)=O)cc(OCC(N)=O)c12 | 252 to 253 °C
O=C(CCn1cnc2c(=O)[nH]cnc21)NC(Cc1ccccc1)C(=O)O (stereo unspecified) | 240 to 242 °C
Cc1cc(C2=NOC(c3cccc(C(F)(F)F)c3)(C(F)(F)F)C2)ccc1Br (stereo unspecified) | 84 to 85 °C
CNc1ccnc(Cl)c1N | 166 to 168 °C
CC(=O)Nc1cccc2cccc(N=[N+]=[N-])c12 | 148 to 149 °C
C=C(c1ccc(C)cc1)c1ccc(N2CCCC2)cc1 | 134 to 136 °C
CCCOc1ccc(C2=NN(C(=O)Nc3ccc(C(F)(F)F)cc3)CC2N(CCC)C(=O)OCC(Cl)(Cl)Cl)cc1 (stereo unspecified) | 162 to 163 °C
O=C(O)C=C(c1ccccc1)c1ccccc1 | 162 to 164 °C
O=C(O)Cc1ccc(Br)cc1[N+](=O)[O-] | 166 to 168 °C
CCOC(=O)N(c1ccc(Cl)cc1Cl)c1ccc(Cl)cc1-n1nc(C(=O)O)nc1CCl | 186 °C
Cc1oc(-c2ccccc2)nc1CCOc1ccc(/C=C/CO)cn1 | 115 to 116 °C
O=C1c2ccccc2C(=O)N1CCS(=O)(=O)c1ccccc1 | 186 to 188 °C
N#Cc1cccnc1N1CCN(CC(=O)Nc2ccc(F)c(Cl)c2)CC1 | 137 to 140 °C
CC(C)(OCc1nn(Cc2ccccc2)c2ccccc12)C(=O)N1CCOCC1 | 135 to 137 °C
CCOC(=N)c1ccc(-c2nc3c(s2)NCCCC3)cc1 | 141 to 143 °C
CSc1c(CC(=O)O)ccc2c3ccccc3n(Cc3ccccc3)c12 | 182 to 183 °C
COc1ccc(-c2cccc(C3SC(N4CCOCC4)=NC3=O)n2)cc1-c1ccccc1 (stereo unspecified) | 214 to 217 °C
O=C(C=C1CCN(Cc2ccc(F)cc2)CC1)NCc1ccc(F)c(F)c1 | 83 to 85 °C
CC(C)(Cc1cc2cc(OCc3ccc4occc4n3)ccc2n1Cc1ccc(Cl)cc1)C(=O)O | 157 °C
COc1cc2c(cc1OC)C(C)(CC(=O)O)OCC2 (stereo unspecified) | 89 to 92 °C
CCCOc1c(OC)cc(C(C#N)CCC(C#N)c2cc(OC)c(OC)c(OC)c2)cc1SC (stereo unspecified) | 131 to 132 °C
